Laboratory results as given in ChEMBL document CHEMBL1201862, “PubChem BioAssay data set” (2004).
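Tested at 5 concentrations; 48 h exposure; 96-well plates; endpoints linearly interpolated, else capped at highest concentration. Abbreviation: GI50, concentration required for 50% inhibition of growth.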 The source made the active and inactive calls. Rule as the data show it: active = GI50 up to about 1.1 µM and inactive = higher.

Key:
Experiment in all cases: growth of human tumour cells (NCI), 48 h
EKVX = system: EKVX
TK-10 = system: TK-10
KM-20L2 = system: KM-20L2
OVCAR-3 = system: OVCAR-3
RXF 631 = system: RXF 631
LXFL 529 = system: LXFL 529
MOLT-4 = system: MOLT-4
786-0 = system: 786-0
NCI-H226 = system: NCI-H226
UACC-62 = system: UACC-62
SK-MEL-5 = system: SK-MEL-5
SF-295 = system: SF-295
A498 = system: A498
SF-268 = system: SF-268
SF-539 = system: SF-539
IGROV-1 = system: IGROV-1
NCI-H460 = system: NCI-H460
SNB-78 = system: SNB-78
DMS-273 = system: DMS-273
HCT-15 = system: HCT-15
SR = system: SR
A549 = system: A549
SN12C = system: SN12C
HOP-62 = system: HOP-62
K562 = system: K562
Malme-3M = system: Malme-3M
COLO 205 = system: COLO 205
RXF 393 = system: RXF 393
UO-31 = system: UO-31
SK-OV-3 = system: SK-OV-3
M19-MEL = system: M19-MEL
OVCAR-5 = system: OVCAR-5
HCT-116 = system: HCT-116
CAKI-1 = system: CAKI-1
SNB-75 = system: SNB-75
HCC 2998 = system: HCC 2998
DMS-114 = system: DMS-114
M14 = system: M14
HOP-92 = system: HOP-92
NCI-H522 = system: NCI-H522
HL-60 = system: HL-60
RPMI-8226 = system: RPMI-8226
LOX IMVI = system: LOX IMVI
SW-620 = system: SW-620
OVCAR-8 = system: OVCAR-8
U-251 = system: U-251
SNB-19 = system: SNB-19
NCI-H23 = system: NCI-H23
OVCAR-4 = system: OVCAR-4
CCRF-CEM = system: CCRF-CEM
DLD-1 = system: DLD-1
HT-29 = system: HT-29
UACC-257 = system: UACC-257
KM12 = system: KM12

With `COc1cc2c(cc1OC)C1C=NC(C(=O)O)(C2)c2ccccc21` (centres undefined) the GI50 (EKVX) was > 100 µM (inactive), the GI50 (TK-10) was > 100 µM (inactive) and the GI50 (KM-20L2) was > 100 µM (inactive). For the same compound, the GI50 (OVCAR-3) was > 100 µM (inactive), the GI50 (RXF 631) was > 100 µM (inactive) and the GI50 (LXFL 529) was > 100 µM (inactive). The GI50 (MOLT-4) was > 100 µM (inactive), the GI50 (786-0) was > 100 µM (inactive) and the GI50 (NCI-H226) was > 100 µM (inactive). For the same compound, the GI50 (UACC-62) was > 100 µM (inactive), the GI50 (SK-MEL-5) was > 100 µM (inactive) and the GI50 (SF-295) was > 100 µM (inactive). For the same compound, the GI50 (A498) was > 100 µM (inactive), the GI50 (SF-268) was > 100 µM (inactive) and the GI50 (SF-539) was > 100 µM (inactive). For the same compound, the GI50 (IGROV-1) was > 100 µM (inactive), the GI50 (NCI-H460) was > 100 µM (inactive) and the GI50 (SNB-78) was > 100 µM (inactive). For the same compound, the GI50 (DMS-273) was > 100 µM (inactive), the GI50 (HCT-15) was over 100 µM and the GI50 (SR) was > 100 µM (inactive). For the same compound, the GI50 (A549) was > 100 µM (inactive), the GI50 (SN12C) was > 100 µM (inactive) and the GI50 (HOP-62) was > 100 µM (inactive). The GI50 (K562) was 23 µM (inactive), the GI50 (Malme-3M) was > 100 µM (inactive) and the GI50 (COLO 205) was > 100 µM (inactive). The GI50 (RXF 393) was > 100 µM (inactive), the GI50 (UO-31) was > 10 µM (inactive) and the GI50 (SK-OV-3) was > 100 µM (inactive). For the same compound, the GI50 (M19-MEL) was > 100 µM (inactive), the GI50 (OVCAR-5) was > 100 µM (inactive) and the GI50 (HCT-116) was > 100 µM (inactive). The GI50 (CAKI-1) was > 100 µM (inactive), the GI50 (SNB-75) was > 100 µM (inactive) and the GI50 (HCC 2998) was > 10 µM (inactive). The GI50 (DMS-114) was > 100 µM (inactive), the GI50 (M14) was > 100 µM (inactive) and the GI50 (HOP-92) was > 100 µM (inactive). For the same compound, the GI50 (NCI-H522) was > 100 µM (inactive), the GI50 (HL-60) was 26.4 µM (inactive) and the GI50 (RPMI-8226) was > 100 µM (inactive). For the same compound, the GI50 (LOX IMVI) was > 100 µM (inactive), the GI50 (SW-620) was > 100 µM (inactive) and the GI50 (OVCAR-8) was > 100 µM (inactive). The GI50 (U-251) was > 100 µM (inactive), the GI50 (SNB-19) was > 100 µM (inactive) and the GI50 (NCI-H23) was > 100 µM (inactive). For the same compound, the GI50 (OVCAR-4) was > 100 µM (inactive), the GI50 (CCRF-CEM) was 52.5 µM (inactive) and the GI50 (DLD-1) was > 100 µM (inactive). The GI50 (HT-29) was > 100 µM (inactive), the GI50 (UACC-257) was > 100 µM (inactive) and the GI50 (KM12) was > 100 µM (inactive).
